# Results: patent US10093973B2, “Polymerase compositions and methods” (LIFE TECHNOLOGIES CORPORATION, priority 2009, dated 2018)
# Where a chain is given by its changes, count along the chain named.
# Columns and labels:
# [1] = tested on: AF647-C6-dG6P in [enzyme.DNA.nucleotide] ternary complex with dideoxy-primer/template duplex; assay: Stopped-flow measurement of t−1 (nucleotide dissociation from ternary complex); format: biochemical; set-up: unit not given here; conditions: t−1 = 1/k−1; ternary complex with 7 μM AF647-C6-dG6P chased with 50 μM non-labeled nucleotide, 2 mM MnCl2
# Description: Stopped-Flow Measurements of t−1
# The stopped-flow techniques for measuring t−1 ([…]) followed the techniques described by M. Bakhtina (2009 Biochemistry 48:3197-3208).
# The rate of the nucleotide dissociation ([…]) from the ternary complex of [enzyme.DNA.nucleotide] was measured in an Applied Photophysics SX20 stopped-flow spectrometer by monitoring changes […] a duplex Alexa fluor 546 dye-labeled-DNA template following the mixing of the [enzyme.DNA.labeled nucleotide] ternary complex with 50 μM cognate non-labeled deoxynucleoside triphosphate in a buffer containing 50 mM Tris-HCl (pH 7.5), 50 mM NaCl, 4 mM DTT, 0.2% BSA, and 2 mM MnCl2.
# The ternary complexes were prepared using: 330 nM polymerase, 100 nM template/primer duplex, and 7 μM terminal phosphate-labeled nucleotides (AF647-C6-dG6P).
# The averaged stopped-flow fluorescence traces (>1.5 msec) were fitted with a single exponential equation (2) to extrapolate the rate of the nucleotide dissociation (k−1) from the [enzyme.DNA.nucleotide] ternary complex. Fluorescence=A1*e^−k−1*t+C (equation 2) where A1 represents the corresponding fluorescence amplitude, C is an offset constant, and k−1 and the observed rate constants for the fluorescence transition.
# [2] = tested on: ωdN4P and extendible AF546 primer:template duplex; assay: Stopped-flow tpol measurement of Example 8; format: biochemical; conditions: modified versus reference polymerase, ωdN4P 14 μM
# Description: In this example, the tpol values of an exemplary modified polymerase comprising the amino acid of SEQ ID NO: 8 and was measured and compared to the tpol value of an exemplary reference polymerase comprising the amino acid sequence of SEQ ID NO: 20. These kinetic parameters were evaluated using a stopped-flow assay wherein a mixture comprising an extendible dye-labeled primer:template duplex and test polymerase was mixed with a solution comprising terminally-labeled nucleotide tetraphosphates or terminally-labeled nucleotide hexaphosphates. These terminally-labeled nucleotides comprise terminal-phosphate-labeled nucleotides having an alkyl linker with a functional amine group attached to the dye. The fluorescence of the resulting mixture was monitored over time. Unless noted otherwise, all concentrations refer to the initial concentrations prior to mixing. […]
# Each primer-template duplex (200 nM) was preincubated with test polymerase (660 nM) and to form an E.DNA binary complex. This binary complex was mixed with the cognate omega-labeled nucleoside tetraphosphate (ωdN4P; 14 μM) in a stopped-flow experiment, and the fluorescence at both 546 nm and 647 nm was monitored following mixing. The averaged stopped-flow fluorescence traces were fitted with the double exponential function of Equation (2) to extrapolate the tpol value of the test polymerase: […]
substance,measurement,setting,value
"mB103 (SEQ ID: 8): B103 polymerase triple mutant with D166A, F383L and D384N",t−1,[1],16
same,estimated tpol values,[2],comparable
